Laboratory results published in patent US7928227B2, “2-oxo-1,3,5-perhydrotriazapine derivatives useful in the treatment of hyper-proliferative, angiogenesis, and inflammatory disorders” (Bayer Healthcare LLC, priority 2003, dated 2011).

Experiments:
[1] = Pharmacokinetics in the mouse (plasma levels by LC-MS after oral gavage of Example 1); assay type: in vivo; settings: for AUC / Cmax / concentration at 0.5 h / concentration at 1 h / concentration at 5 h: mouse, female ICr mice, single oral gavage of Example 1 at 30 mg/kg, plasma; for concentration at 0.5 h: 0.5 hours post dosing; for concentration at 1 h: 1 hour post dosing; for concentration at 5 h: 5 hours post dosing
Experimental: Female ICr mice received single doses of Example 1 by oral gavage at 30 mg/kg body weight. The vehicle used for administration consisted of 12.5% Cremophor, 12.5% ethanol and 75% saline. Blood samples were collected by cardiac puncture under anesthesia and plasma was isolated by centrifugation. Three animals were used for each time point of 0.5, 1 and 5 hours post dosing. Plasma levels of Example 1 and Intermediate 1 were measured by LC-MS.
Calibration samples (1 to 5,000 ng/mL) were prepared by spiking drug-free mouse plasma with known concentrations of Example 1 and Intermediate 1 and then processed with the study samples. An internal standard (close analog) was spiked at a final concentration of 100 ng/ml. Plasma samples were extracted via protein precipitation using acetonitrile (3:1). After vortexing for 1 minute, samples were centrifuged at 2500 rpm for 15 minutes. Supernatant was transferred to 96-well microtiter plates for LC-MS analysis. Analytes (Example 1 and Intermediate 1) and the internal standard were monitored using MRM transitions consisting of their protonated molecular ions to prominent fragment ions (Example 1 m/z 520 to m/z 270; Intermediate 1 m/z 465 to 252; internal standard m/z 469 to m/z 256). The calibration curve was constructed using least squares linear regression and utilized peak area ratios of the analyte and internal standard. Pharmacokinetic analysis of the measured plasma concentrations was conducted using the Watson® Drug Metabolism Laboratory Information Management System (Innaphase Corp, Philadelphia, Pa.). […] By changing the nature of substituent Q in Formula (I), it is possible to impact the stability, i.e., the speed of hydrolysis) of the prodrug, and therefore to modulate the plasma exposure to the pharmacologically active compound. High stabilities will lead to extended release of the drug, while low stabilities will contribute to high Cmax and short duration of action.

AUC [1] [µM·h]	Cmax [1] [µM]	concentration at 0.5 h [1] [µM]	concentration at 1 h [1] [µM]	concentration at 5 h [1] [µM]	Absorption in mice ([1]; oral gavage of Example 1 at 30 mg/kg, result in words)	melting point [°C]	Levels detected in plasma after oral administration of the pro-drug Example 1 ([1]; mice, oral gavage of Example 1 at 30 mg/kg, result in words)	Compound
53.1	13	12.1	13	9.4	very well absorbed	82 to 85	–	CNC(=O)c1cc(Oc2ccc(N3CN(C)CN(c4ccc(Cl)c(C(F)(F)F)c4)C3=O)cc2)ccn1 [Example 1]
1	0.3	0.1	0.2	0.5	–	–	significant levels	CNC(=O)c1cc(Oc2ccc(NC(=O)Nc3ccc(Cl)c(C(F)(F)F)c3)cc2)ccn1 [Intermediate 1, N-(4-chloro-3(trifluoromethyl)phenyl)-N′-(4-(2-(N-methylcarbamoyl)-4-pyridyloxy)phenyl)urea, reference compound]
